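Values below derive from 48-hour exposures of cells grown in 96-well plates, with endpoints linearly interpolated between the two concentrations bracketing the appropriate inhibition level. GI50 is the concentration that inhibits growth by half.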 Calls of active or inactive are those of the source. Rule as the data show it: active = GI50 up to about 1.1 µM and inactive = higher. Where a SMILES comes first, the peptide text is derived from it. The star is where a group is joined. Cbz = O=C(OCc1ccccc1)*; Boc = CC(C)(C)OC(=O)*; OSu = O=C1CCC(=O)N1O*; Bn = c1ccc(C*)cc1 Some results are limits rather than exact numbers.

Some test systems named below: MDA-N; 786-0; MOLT-4; NCI-H460; SW-620; SNB-19; SK-MEL-5; MDA-MB-231; NCI-H226; HCT-116; RXF 393; M14; SR; K562; IGROV-1; OVCAR-5; UACC-257; SNB-75; CCRF-CEM; LOX IMVI.
Assay in all cases: NCI anticancer screen, dose series, 48 h

`CC(NC(=O)OC(C)(C)C)C(=O)NC(Cc1ccccc1)C(=O)NCC(=O)Oc1c(Cl)c(Cl)c(Cl)c(Cl)c1Cl` (stereo unspecified): the GI50 in the test with MDA-N is 28.2 µM (inactive); in the test on 786-0, 21.2 µM (inactive); in the test with MOLT-4 it was 23.2 µM (inactive); in the test on NCI-H460 it was 25.6 µM (inactive); in the test with SW-620, 20.1 µM (inactive); in the test on SNB-19 it was 29.3 µM (inactive). Moreover, the GI50 in the test on SK-MEL-5 was 13.6 µM (inactive); in the test on MDA-MB-231 it was 16.6 µM (inactive); with NCI-H226 it was 17.7 µM (inactive); in the test with HCT-116 it was 19.6 µM (inactive); with RXF 393 it was 17.2 µM (inactive); in the test on M14, 26.2 µM (inactive). Besides, the GI50 with SR is 25 µM (inactive); in the test on K562, 30.6 µM (inactive); in the test with IGROV-1 it was 22.8 µM (inactive); in the test on OVCAR-5, 19 µM (inactive); with UACC-257, 20 µM (inactive); in the test on SNB-75, 34.6 µM (inactive).

Regarding `Cc1nn2c(C(=O)N/N=C/c3ccccc3O)c(C)nc2s1`, the GI50 is 41.2 µM (inactive) in the test on CCRF-CEM; > 100 µM (inactive) in the test on MDA-N; 47.8 µM (inactive) with 786-0; > 100 µM (inactive) in the test on LOX IMVI; 51.9 µM (inactive) with MOLT-4; 49.7 µM (inactive) in the test with NCI-H460. Also, the GI50 in the test on SW-620 was > 100 µM (inactive); with SNB-19, > 100 µM (inactive); in the test on SK-MEL-5, 60.3 µM (inactive); in the test on MDA-MB-231 it was > 100 µM (inactive); in the test with NCI-H226 it was 89.3 µM (inactive); in the test on HCT-116, 51.6 µM (inactive). Besides, the GI50 is > 100 µM (inactive) in the test on RXF 393; 53 µM (inactive) in the test with M14; > 100 µM (inactive) in the test on K562; > 100 µM (inactive) in the test on IGROV-1; > 100 µM (inactive) in the test with OVCAR-5; > 100 µM (inactive) in the test with UACC-257. Besides, the GI50 in the test with SNB-75 was > 100 µM (inactive).

For `Cc1nc2ccc(Cl)cc2c2c1CCS2`, the GI50 with CCRF-CEM is 46 µM (inactive); in the test on MDA-N it was > 100 µM (inactive); in the test on 786-0 it was 66.4 µM (inactive); in the test with LOX IMVI, 38 µM (inactive); in the test on MOLT-4, 19.5 µM (inactive); with NCI-H460, 52.2 µM (inactive). Moreover, the GI50 with SW-620 was > 100 µM (inactive); with SNB-19, > 100 µM (inactive); with SK-MEL-5, 27.6 µM (inactive); in the test on MDA-MB-231, 49.2 µM (inactive); in the test with NCI-H226, 51.6 µM (inactive); with HCT-116 it was 41.1 µM (inactive). For the same compound, the GI50 in the test with RXF 393 was 47.5 µM (inactive); with M14 it was 71.3 µM (inactive); in the test with SR it was 40.9 µM (inactive); with K562 it was 40.9 µM (inactive); in the test with IGROV-1, 47.8 µM (inactive); with OVCAR-5 it was > 100 µM (inactive). Moreover, the GI50 in the test on UACC-257 is 97.7 µM (inactive).

On to `ClC1=C(Cl)C2OC3C=CCC3OC2C(Cl)=C1Cl` (stereo unspecified), for which the GI50 is 40.1 µM (inactive) in the test with CCRF-CEM; 51.3 µM (inactive) in the test with MDA-N; > 100 µM (inactive) with 786-0; 52 µM (inactive) with LOX IMVI; 35.3 µM (inactive) in the test with MOLT-4; 40 µM (inactive) in the test with NCI-H460. Also, the GI50 in the test on SW-620 is 41.2 µM (inactive); with SK-MEL-5, 29.5 µM (inactive); in the test with MDA-MB-231, > 100 µM (inactive); with NCI-H226, 95.3 µM (inactive); in the test with HCT-116 it was 32.9 µM (inactive); in the test with RXF 393, 28.4 µM (inactive). The GI50 in the test with M14 is > 100 µM (inactive); with SR it was 35.3 µM (inactive); with K562, 37.8 µM (inactive); in the test with IGROV-1, > 100 µM (inactive); in the test on OVCAR-5 it was > 100 µM (inactive); with UACC-257, 34.5 µM (inactive).

Take `COc1cccc(-c2nc(-c3cnccn3)n(C3OC(CO)C(O)C3O)n2)c1` (stereo unspecified): the GI50 with CCRF-CEM, with MDA-N, with 786-0, in the test with LOX IMVI, in the test on MOLT-4 and with NCI-H460 was > 100 µM (inactive) each time. Also, the GI50 in the test with SW-620, in the test with SNB-19, in the test on SK-MEL-5, in the test on MDA-MB-231, in the test on HCT-116 and in the test on M14 was > 100 µM (inactive) each time. Further, the GI50 with SR, in the test with K562, in the test with IGROV-1, in the test on OVCAR-5, in the test with UACC-257 and with SNB-75 was > 100 µM (inactive) each time.

Take `NC1=C(Cl)C(=O)c2c(O)ccc(O)c2C1=O`: the GI50 is 4.09 µM (inactive) with CCRF-CEM; 1.77 µM (inactive) in the test on MDA-N; 8.93 µM (inactive) in the test with 786-0; 1.79 µM (inactive) in the test on LOX IMVI; 6.98 µM (inactive) with MOLT-4; 1.91 µM (inactive) in the test on NCI-H460. The GI50 in the test with SW-620 was 3.15 µM (inactive); in the test with SNB-19 it was 3.89 µM (inactive); with SK-MEL-5 it was 0.735 µM (active); in the test on MDA-MB-231, 5.73 µM (inactive); in the test with NCI-H226, 11.6 µM (inactive); in the test with HCT-116 it was 2.47 µM (inactive). The GI50 in the test with RXF 393 is 7.45 µM (inactive); with M14 it was 1.85 µM (inactive); in the test with K562 it was 22.4 µM (inactive); in the test on IGROV-1, 5.83 µM (inactive); with OVCAR-5, 5.85 µM (inactive); with UACC-257, 1.6 µM (inactive). Also, in the test on SNB-75, the GI50 is 5.41 µM (inactive).

For the compound `CCOC1CN(C)/C(=N\c2cccc3ccccc23)S1` (stereo unspecified), the GI50 with CCRF-CEM, with MDA-N, in the test with 786-0, with LOX IMVI, in the test with MOLT-4 and with NCI-H460 was > 10 µM (inactive) each time. For the same compound, the GI50 in the test on SW-620, in the test with SNB-19, in the test with SK-MEL-5, with MDA-MB-231, in the test on NCI-H226 and with HCT-116 was > 10 µM (inactive) each time. Besides, the GI50 in the test with M14, with SR, in the test with K562, with IGROV-1, in the test with OVCAR-5 and in the test on UACC-257 was > 10 µM (inactive) throughout. Moreover, the GI50 with SNB-75 is > 10 µM (inactive).

As for `NC(=O)NC(=O)CCC(NS(=O)(=O)c1ccccc1)C(=O)NC(N)=O` (stereo unspecified), the GI50 in the test on CCRF-CEM, with MDA-N, with 786-0, in the test with LOX IMVI, with MOLT-4 and in the test with NCI-H460 was > 100 µM (inactive) each time. Also, the GI50 in the test on SW-620, in the test on SNB-19, with SK-MEL-5, in the test on MDA-MB-231, in the test with NCI-H226 and in the test on HCT-116 was > 100 µM (inactive) in each case. The GI50 with M14, in the test with SR, with K562, with IGROV-1, in the test with OVCAR-5 and in the test with UACC-257 was > 100 µM (inactive) each time. Besides, the GI50 in the test with SNB-75 was > 100 µM (inactive).

As to `CC(C)(C)OC(=O)NC(Cc1ccc(OCc2ccccc2)cc1)C(=O)NC(CCCCNC(=O)OCc1ccccc1)C(=O)ON1C(=O)CCC1=O` (stereo unspecified) (Boc-Tyr(Bn)-Lys(Cbz)-OSu; configuration not given here), the GI50 in the test on MDA-N was 15.7 µM (inactive); in the test with 786-0, 18.9 µM (inactive); with MOLT-4, 20 µM (inactive); in the test on NCI-H460, 21.7 µM (inactive); in the test with SW-620, 20.7 µM (inactive); with SNB-19, 16.7 µM (inactive). For the same compound, the GI50 with SK-MEL-5 was 22.4 µM (inactive); in the test on MDA-MB-231, 22.3 µM (inactive); in the test on NCI-H226 it was 29.2 µM (inactive); with HCT-116, 19.9 µM (inactive); with RXF 393, 16.9 µM (inactive); in the test on M14, 19.4 µM (inactive). Besides, the GI50 was 25.4 µM (inactive) in the test with SR; 27 µM (inactive) with K562; 16.8 µM (inactive) in the test with IGROV-1; 31.3 µM (inactive) in the test on OVCAR-5; 34.3 µM (inactive) in the test on UACC-257; 21.8 µM (inactive) in the test with SNB-75.

As for `O=C(O)CN(CC(=O)O)Cc1cc2c(cc1O)Oc1cc(O)c(CN(CC(=O)O)CC(=O)O)cc1C21OC(=O)c2ccccc21` [OFTASCEINE], the GI50 in the test with CCRF-CEM is > 100 µM (inactive); in the test on MDA-N, > 100 µM (inactive); with 786-0 it was > 100 µM (inactive); in the test on LOX IMVI, > 100 µM (inactive); in the test with MOLT-4, > 100 µM (inactive); in the test on NCI-H460, > 10 µM (inactive). The GI50 in the test with SW-620, in the test with SNB-19, in the test with SK-MEL-5, in the test on MDA-MB-231, in the test with NCI-H226 and in the test on HCT-116 was > 100 µM (inactive) in each case. Besides, the GI50 in the test with M14, in the test on SR, in the test with K562, in the test with IGROV-1, in the test on OVCAR-5 and with UACC-257 was > 100 µM (inactive) throughout. Moreover, in the test with SNB-75, the GI50 was > 100 µM (inactive).

Source of the values: ChEMBL document CHEMBL1201862, “PubChem BioAssay data set” (2004).
